Measured values reported in patent US8232283B2, “Raf inhibitors” (Forma Therapeutics, Inc., priority 2008, dated 2012).

Key:
A-431 [B-Raf wildtype] = experiment: Anti-proliferative activity, SRB assay, 72 hours; type: cell-based; conditions: Homo sapiens, read-out: CELLULAR IC50 [μM] A-431 [B-Raf wildtype]
Experimental: (§1) Cells were exposed to the test compounds at various concentrations appropriate to determine an IC50, for 72 hours, and cell proliferation was measured using the SRB assay according to Shekan et al (J Natl Cancer Inst (1990) 82, 1107-112) in order to estimate the IC50 values shown in Table 3.
(§2) Briefly, cells were plated in 96 well dishes 24 hours prior to compound addition at the densities specified in Table 11.1.
(§3) The assay was terminated with the addition of ice cold 10% TCA after growth medium has been removed and the plates were incubated over night at 4° C. The plates were then washed 5 times with water and 100 μl of a Sulforhodamine B solution ([…]) was added to each well. The plates were then incubated for 10 minutes at room temperature before removal of unbound dye by washing with 1% acetic acid. The bound dye was solubilized with 10 mM Trizma base and the absorbance read at OD520.
(§4) Inhibitory activity of the compounds was calculated as % inhibition of cell proliferation compared to cells treated with the solvent (DMSO).

[1] = tested on: HT-29 [B-Raf V600E mutant]; experiment: Anti-proliferative activity, SRB assay, 72 hours; type: cell-based; conditions: Homo sapiens, read-out: CELLULAR IC50 [μM] HT-29 [B-Raf V600E mutant]
Experimental: We observed the surprising finding that compounds of the invention were useful in inhibiting proliferation of HT-29 tumor cells (see Table 3).
as §1, §2, §3, §4

SMILES	IC50 (A-431 [B-Raf wildtype]) [µM]	IC50 [1] [µM]
COn1c(=O)c(-c2cc(NC(=O)c3ccc(Cl)c(C(F)(F)F)c3)ccc2Cl)cc2cnc(NCCN(C)C)nc21 [Compound 3, 4-Chloro-N-{4-chloro-3-[2-(2-dimethylamino-ethylamino)-8-methoxy-7-oxo-7,8-dihydro-pyrido[2,3-d]pyrimidin-6-yl]-phenyl}-3-trifluoromethyl-benzamide]	> 10	< 5
COn1c(=O)c(-c2ccc(NC(=O)c3ccc(Cl)c(C(F)(F)F)c3)cc2Cl)cc2cnc(NCCN(C)C)nc21 [Compound 6, 4-Chloro-N-{3-chloro-4-[2-(2-dimethylamino-ethylamino)-8-methoxy-7-oxo-7,8-dihydro-pyrido[2,3-d]pyrimidin-6-yl]-phenyl}-3-trifluoromethyl-benzamide]	< 10	< 5
COn1c(=O)c(-c2cc(NC(=O)c3cc(Cl)nc(Cl)c3)ccc2Cl)cc2cnc(NCCN(C)C)nc21 [Compound 7, 2,6-Dichloro-N-(4-chloro-3-(2-(2-(dimethylamino)ethylamino)-8-methoxy-7-oxo-7,8-dihydropyrido[2,3-d]pyrimidin-6-yl)phenyl)-isonicotinamide]	> 10	< 10
COn1c(=O)c(-c2cc(NC(=O)c3cc(C(C)(C)C)n[nH]3)ccc2Cl)cc2cnc(NCCN(C)C)nc21 [Compound 9, 5-tert-Butyl-2H-pyrazole-3-carboxylic acid {4-chloro-3-[2-(2-dimethylamino-ethylamino)-8-methoxy-7-oxo-7,8-dihydro-pyrido[2,3-d]pyrimidin-6-yl]-phenyl}-amide]	> 10	> 10
COn1c(=O)c(-c2cc(NC(=O)c3ccc(C(F)(F)F)c(F)c3)ccc2Cl)cc2cnc(NCCN(C)C)nc21 [Compound 12, N-{4-Chloro-3-[2-(2-dimethylamino-ethylamino)-8-methoxy-7-oxo-7,8-dihydro-pyrido[2,3-d]pyrimidin-6-yl]-phenyl}-3-fluoro-4-trifluoromethyl-benzamide]	> 10	< 10
COn1c(=O)c(-c2cc(NC(=O)c3cc4ccccc4n3C)ccc2Cl)cc2cnc(NCCN(C)C)nc21 [Compound 13, 1-Methyl-1H-indole-2-carboxylic acid {4-chloro-3-[2-(2-dimethylamino-ethylamino)-8-methoxy-7-oxo-7,8-dihydro-pyrido[2,3-d]pyrimidin-6-yl]-phenyl}-amide]	> 10	< 10
COc1ccc(C(F)(F)F)cc1C(=O)Nc1ccc(Cl)c(-c2cc3cnc(NCCN(C)C)nc3n(OC)c2=O)c1 [Compound 14, N-{4-Chloro-3-[2-(2-dimethylamino-ethylamino)-8-methoxy-7-oxo-7,8-dihydro-pyrido[2,3-d]pyrimidin-6-yl]-phenyl}-2-methoxy-5-trifluoromethyl-benzamide]	> 10	< 5
COc1cc(C(F)(F)F)ccc1C(=O)Nc1ccc(Cl)c(-c2cc3cnc(NCCN(C)C)nc3n(OC)c2=O)c1 [Compound 15, N-{4-Chloro-3-[2-(2-dimethylamino-ethylamino)-8-methoxy-7-oxo-7,8-dihydro-pyrido[2,3-d]pyrimidin-6-yl]-phenyl}-2-methoxy-4-trifluoromethyl-benzamide]	> 10	< 5
COn1c(=O)c(-c2cc(NC(=O)c3ccc(C(F)(F)F)cc3F)ccc2Cl)cc2cnc(NCCN(C)C)nc21 [Compound 20]	> 10	> 10
COc1ccc(C(=O)Nc2ccc(Cl)c(-c3cc4cnc(NCCN(C)C)nc4n(OC)c3=O)c2)cc1Cl [Compound 21, 3-Chloro-N-{4-chloro-3-[2-(2-dimethylamino-ethylamino)-8-methoxy-7-oxo-7,8-dihydro-pyrido[2,3-d]pyrimidin-6-yl]-phenyl}-4-methoxy-benzamide]	> 10	< 5
COn1c(=O)c(-c2cc(NC(=O)c3cc(Cl)cc(Cl)c3)ccc2Cl)cc2cnc(NCCN(C)C)nc21 [Compound 22, 3,5-Dichloro-N-{4-chloro-3-[2-(2-dimethylamino-ethylamino)-8-methoxy-7-oxo-7,8-dihydro-pyrido[2,3-d]pyrimidin-6-yl]-phenyl}-benzamide]	> 10	< 5
COn1c(=O)c(-c2cc(NC(=O)Cc3cccc(C(F)(F)F)c3)ccc2Cl)cc2cnc(NCCN(C)C)nc21 [Compound 25, N-{4-Chloro-3-[2-(2-dimethylamino-ethylamino)-8-methoxy-7-oxo-7,8-dihydro-pyrido[2,3-d]pyrimidin-6-yl]-phenyl}-2-(3-trifluoromethyl-phenyl)-acetamide]	> 10	< 5
COn1c(=O)c(-c2cc(NC(=O)c3cc(C(F)(F)F)ccc3Cl)ccc2Cl)cc2cnc(NCCN(C)C)nc21 [Compound 29, 2-Chloro-N-{4-chloro-3-[2-(2-dimethylamino-ethylamino)-8-methoxy-7-oxo-7,8-dihydro-pyrido[2,3,-d]pyrimidin-6-yl]-phenyl}-5-trifluoromethyl-benzamide]	> 10	< 10
COn1c(=O)c(-c2cc(NC(=O)c3ccccc3)ccc2Cl)cc2cnc(NCCN(C)C)nc21 [Compound 33, N-{4-Chloro-3-[2-(2-dimethylamino-ethylamino)-8-methoxy-7-oxo-7,8-dihydro-pyrido[2,3-d]pyrimidin-6-yl]-phenyl}-benzamide]	> 10	> 10
COn1c(=O)c(-c2cc(NC(=O)c3ccc(C(F)(F)F)cc3)ccc2Cl)cc2cnc(NCCN(C)C)nc21 [Compound 34, N-{4-Chloro-3-[2-(2-dimethylamino-ethylamino)-8-methoxy-7-oxo-7,8-dihydro-pyrido[2,3-d]pyrimidin-6-yl]-phenyl}-4-trifluoromethyl-benzamide]	> 10	< 10
COn1c(=O)c(-c2cc(NC(=O)c3cc(C(F)(F)F)cc(C(F)(F)F)c3)ccc2Cl)cc2cnc(NCCN(C)C)nc21 [Compound 35, N-{4-Chloro-3-[2-(2-dimethylamino-ethylamino)-8-methoxy-7-oxo-7,8-dihydro-pyrido[2,3-d]pyrimidin-6-yl]-phenyl}-3,5-bis-trifluoromethyl-benzamide]	> 10	< 5
COn1c(=O)c(-c2cc(NC(=O)c3ccccc3Cl)ccc2Cl)cc2cnc(NCCN(C)C)nc21 [Compound 36, 2-Chloro-N-{4-chloro-3-[2-(2-dimethylamino-ethylamino)-8-methoxy-7-oxo-7,8-dihydro-pyrido[2,3-d]pyrimidin-6-yl]-phenyl}-benzamide]	> 10	> 10
COn1c(=O)c(-c2cc(NC(=O)c3ccc(Cl)cc3)ccc2Cl)cc2cnc(NCCN(C)C)nc21 [Compound 38, 4-Chloro-N-{4-chloro-3-[2-(2-dimethylamino-ethylamino)-8-methoxy-7-oxo-7,8-dihydro-pyrido[2,3-d]pyrimidin-6-yl]-phenyl}-benzamide]	> 10	> 10
COn1c(=O)c(-c2cc(NC(=O)c3nc4ccc(F)cc4[nH]3)ccc2Cl)cc2cnc(NCCN(C)C)nc21 [Compound 40, 6-Fluoro-1H-benzoimidazole-2-carboxylic acid {4-chloro-3-[2-(2-dimethylamino-ethylamino)-8-methoxy-7-oxo-7,8-dihydro-pyrido[2,3-d]pyrimidin-6-yl]-phenyl}-amide]	> 10	> 10
